pIC50: −log10 of the molar value. Activity calls are given as the source filed them. No cut-off for these calls is given here.

Series [1] is filed under the species Homo sapiens. Kind of series: Inhibition of self-induced amyloid beta (1 to 42) (unknown origin) aggregation at 10 uM after 48 hrs by thioflavin-T fluorescence method relative to control.
In series [2] the target is Acetylcholinesterase (Electrophorus electricus, UniProt O42275). As to the kind of experiment: Inhibition of electric eel AChE using acetylthiocholine chloride as substrate incubated for 15 mins by Ellman's method.
Series [3] has as its system Drosophila melanogaster. Kind of series: In vivo inhibition of AChE in Elav-GAL4/UAS-Abeta42 hybrid Drosophila melanogaster assessed as reduction in intracephalic AChE levels by HPLC analysis. Type of series: functional. As to conditions: dose 0.1-10 µM.
Series [4] in a line: in vitro. As to conditions: PAMPA.
Description: Effective permeability of the compound in PBS/ethanol buffer (9:1) at 25 ug/ml after 10 hrs by UV plate reader based PAMPA-BBB assay
The target of series [5] is Acetylcholinesterase (Electrophorus electricus) (UniProt O42275). Kind of series: Mixed type inhibition of electric eel AChE using acetylthiocholine chloride as substrate preincubated for 15 mins followed by substrate addition by reciprocal plot analysis.
In series [6] the test system is SH-SY5Y. As to the kind of experiment: (§1) Inhibition of amyloid beta42 secretion in human SH-SY5Y cells overexpressing human APP Swedish mutant at 1 uM incubated for 24 hrs by ELISA. In kind it is functional.
Series [7] relates to Caenorhabditis elegans. As to the kind of experiment: Induction of autophagy in Caenorhabditis elegans BC12921 expressing SQST-1-GFP fusion protein assessed as decrease in fluorescence intensity at 1 uM by microplate reader analysis. Type of series: functional. The arrangement: scale not given: the % may be the effect or the level left.
Series [8] deals with Drosophila melanogaster. Kind of series: In vivo inhibition of AChE in Elav-GAL4/UAS-Abeta42 hybrid Drosophila melanogaster assessed as reduction in intracephalic AChE levels at 0.1 to 10 uM by HPLC analysis. Type of series: functional. As to conditions: dose 0.1-10 µM.
Series [9] is described as follows: as §1. Type of series: functional.

Chain of Acetylcholinesterase (O42275 whole entry, the tested form may be a part): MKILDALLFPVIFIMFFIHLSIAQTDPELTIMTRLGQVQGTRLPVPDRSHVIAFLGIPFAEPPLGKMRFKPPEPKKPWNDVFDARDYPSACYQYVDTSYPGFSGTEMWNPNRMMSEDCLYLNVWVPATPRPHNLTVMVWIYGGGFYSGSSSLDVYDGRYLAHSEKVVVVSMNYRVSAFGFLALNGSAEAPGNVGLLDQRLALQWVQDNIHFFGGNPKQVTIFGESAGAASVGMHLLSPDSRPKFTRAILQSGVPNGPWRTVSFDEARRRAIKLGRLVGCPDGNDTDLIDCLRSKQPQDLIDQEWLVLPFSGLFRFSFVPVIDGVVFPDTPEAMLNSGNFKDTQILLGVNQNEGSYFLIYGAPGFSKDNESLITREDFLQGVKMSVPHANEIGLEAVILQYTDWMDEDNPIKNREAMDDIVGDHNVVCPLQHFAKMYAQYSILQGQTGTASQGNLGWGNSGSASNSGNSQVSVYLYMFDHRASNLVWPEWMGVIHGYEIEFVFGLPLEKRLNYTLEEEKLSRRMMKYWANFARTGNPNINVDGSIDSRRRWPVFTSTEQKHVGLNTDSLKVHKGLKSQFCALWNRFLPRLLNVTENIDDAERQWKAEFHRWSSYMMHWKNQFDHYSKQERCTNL
Chain of Acetylcholinesterase (Electrophorus electricus) (O42275 24-633 limits assumed): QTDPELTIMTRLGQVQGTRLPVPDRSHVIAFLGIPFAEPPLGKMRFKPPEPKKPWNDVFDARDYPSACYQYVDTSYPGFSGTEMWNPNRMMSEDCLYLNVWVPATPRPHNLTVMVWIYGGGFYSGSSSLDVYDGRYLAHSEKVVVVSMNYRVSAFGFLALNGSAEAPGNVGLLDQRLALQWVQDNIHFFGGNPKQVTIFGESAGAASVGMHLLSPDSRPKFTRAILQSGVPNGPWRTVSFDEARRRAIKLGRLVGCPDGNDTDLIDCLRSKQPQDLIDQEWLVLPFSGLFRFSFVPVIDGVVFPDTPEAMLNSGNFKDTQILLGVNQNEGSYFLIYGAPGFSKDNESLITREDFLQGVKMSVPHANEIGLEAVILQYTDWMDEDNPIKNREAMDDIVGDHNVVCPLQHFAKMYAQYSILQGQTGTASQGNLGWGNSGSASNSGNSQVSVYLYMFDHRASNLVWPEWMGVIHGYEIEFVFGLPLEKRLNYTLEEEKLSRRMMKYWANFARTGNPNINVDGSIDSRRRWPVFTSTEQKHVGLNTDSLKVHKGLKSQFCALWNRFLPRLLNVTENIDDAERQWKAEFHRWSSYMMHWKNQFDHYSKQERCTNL

Take `COc1cc(/C=C/C(=O)CC(=O)/C=C/c2ccc(O)c(OC)c2)ccc1O`: the inhibition in series [1] turned out to be 45.1%.

In [2], `O=C(CCCCCN1CCCCC1)Nc1cccc2c1C(=O)c1cccc3ccnc-2c13` gave a pIC50 of 6.33. Besides, the results for the inhibition entry in [3] and in series [1] were “Dose-dependent effect” and 55.7%, respectively. In addition, the Papp at 10 h, 25 ug/ml in series [4] was found to be 49.2 nm/s.

Regarding `O=C(CCCCN1CCCCC1)Nc1c(Cl)ccc2c1-c1nccc3cccc(c13)C2=O`, in series [2], the pIC50 is 5.74. For the same molecule, the results for the inhibition result in series [3] and in series [1] were “Dose-dependent effect” and 71.2%, respectively. This molecule also gave a Papp at 10 h, 25 ug/ml in series [4] of 17.4 nm/s.

Consider `O=C(CCN1CCCCC1)Nc1cccc2c1C(=O)c1cccc3ccnc-2c13`, for which the negative-log IC50 (pIC50) in [2] was 7.09. In addition, the inhibition entry in [5], in [6] and in [8] was “Active” in each case. Besides, the values for the inhibition result in series [3] and in series [1] were “Dose-dependent effect” and 76.1%, respectively. Besides, the Activity in series [7] amounted to 28%. The molecule further had a Papp at 10 h, 25 ug/ml in [4] of 25.4 nm/s.

For the molecule `O=C(CCN1CCCCC1)Nc1c(Cl)ccc2c1-c1nccc3cccc(c13)C2=O`, the pIC50 in series [2] was 7.55. For the same molecule, the inhibition result in [5], in [6] and in series [8] was “Active” each time. Further, the inhibition result in [3] is “Dose-dependent effect”; in series [1] it was 74.6%. In series [9], this molecule returned an inhibition at 1 µM of 46%. Also, in [7], the Activity is 26.5%. The apparent permeability coefficient (Papp) at 10 h, 25 ug/ml in series [4] stood at 82.4 nm/s.

The molecule `O=C(CN1CCCCC1)Nc1c(Cl)ccc2c1-c1nccc3cccc(c13)C2=O` showed a pIC50 in [2] of 7.49. The inhibition result in series [3] was “Dose-dependent effect”; in [1], 51.3%. Also, the inhibition result in [6] is “Active”. The apparent permeability (Papp) at 10 h, 25 ug/ml in series [4] worked out at 13.6 nm/s.

The molecule `O=C(CCCCN1CCCCC1)Nc1cccc2c1C(=O)c1cccc3ccnc-2c13` gave a pIC50 in series [2] of 6.01. The results for the inhibition result in series [3] and in series [1] were “Dose-dependent effect” and 52.5%, respectively. This molecule registered a Papp at 10 h, 25 ug/ml in [4] of 65.9 nm/s.

The molecule `O=C(CCCCCN1CCCCC1)Nc1c(Cl)ccc2c1-c1nccc3cccc(c13)C2=O` gave a pIC50 in [2] of 6.42. The inhibition entry was “Dose-dependent effect” in series [3] and 67.7% in [1]. Besides, in series [4], the Papp at 10 h, 25 ug/ml worked out at 27.2 nm/s.

Take `O=C(CCCN1CCCCC1)Nc1c(Cl)ccc2c1-c1nccc3cccc(c13)C2=O`: the pIC50 in series [2] is 6.83. Further, the inhibition entry was “Dose-dependent effect” in series [3] and 78.4% in [1]. Besides, the inhibition entry in series [8] was “Active”. The Papp at 10 h, 25 ug/ml in series [4] is 24.4 nm/s.

As for `O=C(CN1CCCCC1)Nc1cccc2c1C(=O)c1cccc3ccnc-2c13`, the pIC50 in series [2] is 6.81. Also, the figures for the inhibition result in series [3] and in series [1] were “Dose-dependent effect” and 57.6%, respectively. In series [4], this molecule showed a Papp at 10 h, 25 ug/ml of 16.3 nm/s.

`O=C(CCCN1CCCCC1)Nc1cccc2c1C(=O)c1cccc3ccnc-2c13` gave a pIC50 in series [2] of 6.73. Besides, the inhibition result is “Dose-dependent effect” in series [3] and 61.3% in [1]. Also, the inhibition result in series [6] was “Active”. For the same molecule, in [4], the Papp at 10 h, 25 ug/ml was 15.2 nm/s.

Values taken from ChEMBL document CHEMBL4715782, “Multitarget-directed oxoisoaporphine derivatives: Anti-acetylcholinesterase, anti-β-amyloid aggregation and enhanced autophagy activity against Alzheimer's disease” (Bioorg Med Chem, 2016).
